The target in assay [1] is T1, ternary complex CRBN/PROTAC/METTL3–14 (Homo sapiens, UniProt Q86U44+Q96SW2).
T1 construct: methyltransferase domains (MTD) of METTL3 (residues 354–580); His6 (N, cleaved yes); made in house; host or cells: METTL3-MTD/METTL14-MTD: baculovirus/Sf9; CRBN-TBD: E. coli Rosetta (DE3), co-expressed with BirA
The assay is described as follows: FRET-based ternary complex formation assay (TCFA). In kind it is binding. Particulars: for TCFA amplitude (mean ± SEM): Hook curve amplitude, fraction of the maximum of compound 16; for ECmax (nM) ± SD: PROTAC concentration at the maximum of the signal in the TCFA; for ECmax: TCFA, peak of the Hook curve. In outline: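 HTRF/TR-FRET measurement of PROTAC-induced complex between GST-tagged METTL3–14 and biotinylated CRBN^TBD-Avi (10 nM final) with 0.8 nM Eu^3+ anti-GST antibody, in 50 mM HEPES pH 7.5, 150 mM NaCl, 0.1% BSA, 100 mM KF. Emission ratio used; ECmax and Hook-curve amplitude taken from Gaussian fit or highest-signal data point.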

Assay [2] addresses T2, METTL3-14 (Homo sapiens, UniProt Q86U44). The assay is described as follows: Cellular degradation assay (Western blot), METTL3 and/or METTL14 (METTL3–14) in MOLM-13. In kind it is cell-based. Particulars: for METTL3–14 levels in the presence of UZH2: MOLM-13, 2 μM PROTAC + 10 μM UZH2; for METTL3–14 degradation in the presence of lenalidomide: MOLM-13, 2 μM PROTAC + 10 μM lenalidomide; for degradation of METTL3 and/or METTL14: MOLM-13, 2 μM, 24 h, Western blot; for concentration at which the highest degradation was observed: MOLM-13, five concentrations. Details: METTL3–14 degradation up to 70% of the endogenous level; endogenous in cells; host or cells: MOLM-13, KASUMI-1, THP-1, NOMO-1. In short, it runs like this:
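MOLM-13 cells exposed to PROTACs or 0.1% (v/v) DMSO for 24h at 37 °C, 5% CO2. METTL3 (and METTL14) protein levels measured by Western blot with densitometry.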
In general terms: In western blotting, separated proteins are transferred to a membrane and probed.

Assay [3] concerns the target T2, METTL3-14. The assay is described as follows: Cellular degradation assay (Western blot) in NOMO-1. It is filed as cell-based. Details: METTL3–14 degradation up to 70% of the endogenous level; endogenous in cells; host or cells: MOLM-13, KASUMI-1, THP-1, NOMO-1. Particulars: NOMO-1, 2 μM, 24 h. The protocol: (§1) MOLM-13, NOMO-1, THP-1, Kasumi-1, PC3, and DU145 cell lines were obtained from DSMZ-German Collection of Microorganisms and Cell Cultures GmbH. Cells were cultured in RPMI 1640 medium (11875093, Thermo Fisher Scientific) containing 10% FBS (16140071, Thermo Fisher Scientific) and 1% penicillin-streptomycin (15140122, Thermo Fisher Scientific) in 5% CO2 at 37 °C in a humidified incubator, with maintained cell densities at 0.5–1 × 10^6 cells/mL. All cell lines were tested negative for mycoplasma contamination (PCR-based assay by Microsynth, Switzerland).
(§2) METTL3 (and METTL14) protein degradation was monitored by Western blot. Cells were treated with the indicated concentration of PROTACs or DMSO control (0.1% (v/v)) for 24h, 37 °C with 5% CO2. Samples were then collected and lysed with RIPA buffer with added protease inhibitors (11697498001, Roche). After SDS-PAGE, proteins were transferred to a nitrocellulose membrane, blocked (with 5% milk, 0.5% BSA in TBST buffer), and incubated overnight with primary antibodies. The following antibodies were used: GAPDH (no. 2118, Cell Signaling, 1:4000), β-actin (ab8226, Abcam, 1:2000), METTL3 (ab195352, Abcam, 1:1000), and METTL14 (ab220031, Abcam, 1:1000). Membranes were scanned using an LI-COR Odyssey DLx imager after incubation with appropriate secondary antibodies (antimouse IgG IRDye 680RD (926–68072, LI-COR, 1:10000) and goat anti-Rabbit IgG IRDye 800CW (926–32211, LI-COR, 1:10000)). Densitometry was performed in Image Studio Lite software and analyzed in GraphPad Prism 9.

Another assay has as its target T3, METTL3 (Homo sapiens, UniProt Q86U44).
T3 construct: METTL3–14 degradation up to 70% of the endogenous level; endogenous in cells; host or cells: MOLM-13, PC3, DU145
The assay is described as follows: Cellular degradation assay (Western blot) in PC3. It is filed as cell-based. Conditions: PC3, 2 μM, 24 h. The protocol: as §1
as §2, with “Membranes were scanned using an LI-COR Odyssey DLx imager after incubation with appropriate secondary antibodies (antimouse IgG IRDye 680RD (926–68072, LI-COR, 1:10000) and goat anti-Rabbit IgG IRDye 800CW (926–32211, LI-COR, 1:10000)).” left out

Bounds are passed on as bounds.

T1 sequence (Q86U44 354-580): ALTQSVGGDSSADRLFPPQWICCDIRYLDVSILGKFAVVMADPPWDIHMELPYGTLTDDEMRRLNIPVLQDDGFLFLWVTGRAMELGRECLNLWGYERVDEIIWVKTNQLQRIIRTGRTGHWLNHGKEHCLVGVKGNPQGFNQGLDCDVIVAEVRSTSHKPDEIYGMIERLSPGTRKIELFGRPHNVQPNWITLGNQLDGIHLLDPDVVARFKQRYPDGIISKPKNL
T1 sequence (Q9HCE5 107-395 partner limits assumed): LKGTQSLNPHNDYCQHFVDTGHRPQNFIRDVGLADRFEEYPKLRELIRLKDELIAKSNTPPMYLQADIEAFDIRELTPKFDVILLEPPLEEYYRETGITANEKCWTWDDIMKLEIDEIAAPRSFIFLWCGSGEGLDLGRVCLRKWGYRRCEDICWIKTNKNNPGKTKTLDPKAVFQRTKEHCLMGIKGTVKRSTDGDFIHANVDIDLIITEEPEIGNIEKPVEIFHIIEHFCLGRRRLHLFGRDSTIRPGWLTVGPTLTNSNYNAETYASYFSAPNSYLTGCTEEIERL
T1 sequence (Q96SW2 318-442): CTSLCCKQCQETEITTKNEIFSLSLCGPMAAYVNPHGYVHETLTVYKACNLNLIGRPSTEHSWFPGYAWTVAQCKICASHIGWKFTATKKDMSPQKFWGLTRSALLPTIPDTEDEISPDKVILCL
T2 sequence (Q86U44 2-580 limits assumed): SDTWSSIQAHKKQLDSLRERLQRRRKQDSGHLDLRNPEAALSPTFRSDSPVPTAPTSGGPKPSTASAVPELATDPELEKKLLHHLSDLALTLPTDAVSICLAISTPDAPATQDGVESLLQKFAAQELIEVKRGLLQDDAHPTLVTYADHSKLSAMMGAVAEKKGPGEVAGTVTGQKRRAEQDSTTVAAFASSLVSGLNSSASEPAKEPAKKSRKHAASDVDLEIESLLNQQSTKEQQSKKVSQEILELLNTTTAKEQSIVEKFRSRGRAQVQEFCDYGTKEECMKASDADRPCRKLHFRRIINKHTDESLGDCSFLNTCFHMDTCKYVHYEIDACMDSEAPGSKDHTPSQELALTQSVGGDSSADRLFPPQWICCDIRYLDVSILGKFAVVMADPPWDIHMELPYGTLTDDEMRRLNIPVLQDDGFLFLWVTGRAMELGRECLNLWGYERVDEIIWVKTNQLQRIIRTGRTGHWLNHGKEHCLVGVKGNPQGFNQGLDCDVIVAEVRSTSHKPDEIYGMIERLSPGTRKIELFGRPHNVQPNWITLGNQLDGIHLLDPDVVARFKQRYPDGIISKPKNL
T2 sequence (Q9HCE5 whole entry partner): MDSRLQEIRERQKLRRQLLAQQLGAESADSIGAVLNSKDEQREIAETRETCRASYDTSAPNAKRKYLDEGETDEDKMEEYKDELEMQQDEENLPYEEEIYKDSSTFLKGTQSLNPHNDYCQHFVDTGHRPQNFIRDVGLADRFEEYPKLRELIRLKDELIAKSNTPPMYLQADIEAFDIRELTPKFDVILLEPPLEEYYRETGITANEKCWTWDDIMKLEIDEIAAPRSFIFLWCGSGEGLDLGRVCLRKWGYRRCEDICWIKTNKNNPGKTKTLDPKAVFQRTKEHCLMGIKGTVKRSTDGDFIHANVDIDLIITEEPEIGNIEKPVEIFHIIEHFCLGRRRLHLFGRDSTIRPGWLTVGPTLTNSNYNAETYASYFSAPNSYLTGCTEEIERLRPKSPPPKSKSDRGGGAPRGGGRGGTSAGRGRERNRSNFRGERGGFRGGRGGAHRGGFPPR
T3 sequence (Q86U44 2-580 limits assumed): as the sequence (Q86U44 2-580 limits assumed) above
T3 sequence (Q9HCE5 whole entry partner): as the sequence (Q9HCE5 whole entry partner) above

For the compound `CC1(C)CCN(Cc2cc(F)c(N3CC(=O)NC4(CCN(c5cc(NCC6CCN(C(=O)CCCCCNc7cccc8c7C(=O)N(C7CCC(=O)NC7=O)C8=O)CC6)ncn5)CC4)C3)cc2F)CC1` (stereo not drawn) [Compound 24], in assay [1], the “TCFA amplitude (mean ± SEM)” value came out at 1.2 ± 0.0, the “ECmax (nM) ± SD” value is reported as 470 ± 80 nM and the ECmax result is “submicromolar”. On METTL3-14 [2], the “METTL3–14 levels in the presence of UZH2” value is “elevated levels of METTL3–14”, the “METTL3–14 degradation in the presence of lenalidomide” value is on record as “did not observe any degradation” and the “degradation of METTL3 and/or METTL14” value is reported as not below 50%. In addition, the “degradation levels of METTL3 and METTL14” value at METTL3-14 [3] is “comparable to those in MOLM-13”.
In the case of `CC1(C)CCN(Cc2cc(F)c(N3CC(=O)NC4(CCN(c5cc(NCc6cccc(CNC(=O)CCCCCCCCCCn7cc(CNc8cccc9c8C(=O)N(C8CCC(=O)NC8=O)C9=O)nn7)c6)ncn5)CC4)C3)cc2F)CC1` (stereo not drawn) [Compound 20], in assay [1], the “TCFA amplitude (mean ± SEM)” value is on record as 0.6 ± 0.0, the “ECmax (nM) ± SD” value was 860 ± 240 nM and the ECmax result was “submicromolar”. Moreover, at METTL3, the “reduction of METTL3” value is given as 48%. Also, on METTL3-14 [2], the “METTL3–14 levels in the presence of UZH2” value is “elevated levels of METTL3–14”, the “METTL3–14 degradation in the presence of lenalidomide” value was “did not observe any degradation” and the “degradation of METTL3 and/or METTL14” value is reported as not below 50%. Besides, on METTL3-14 [3], the “degradation levels of METTL3 and METTL14” value was “comparable to those in MOLM-13”.
Consider `CC1(C)CCN(Cc2cc(F)c(N3CC(=O)NC4(CCN(c5cc(NCCN6CCN(C(=O)CCCCCNc7cccc8c7C(=O)N(C7CCC(=O)NC7=O)C8=O)CC6)ncn5)CC4)C3)cc2F)CC1` (stereo not drawn) [Compound 30], for which, in assay [1], the “TCFA amplitude (mean ± SEM)” value was 1.0 ± 0.1, the “ECmax (nM) ± SD” value was 70 ± 30 nM and the ECmax result is recorded as “submicromolar”. Further, the “highest degradation in concentration dependence” value on METTL3-14 [2] (MOLM-13, 0.1 μM) is “up to 60%”. The “concentration at which the highest degradation was observed” value at METTL3-14 [2] stood at 0.1 µM. For the same compound, the “degradation levels of METTL3 and METTL14” value on METTL3-14 [3] is “comparable to those in MOLM-13”.
Regarding `CC1(C)CCN(Cc2cc(F)c(N3CC(=O)NC4(CCN(c5cc(NCC6CCN(C(=O)CCCNc7cccc8c7C(=O)N(C7CCC(=O)NC7=O)C8=O)CC6)ncn5)CC4)C3)cc2F)CC1` (stereo not drawn) [Compound 22], in assay [1], the “TCFA amplitude (mean ± SEM)” value is listed as 1.1 ± 0.1 and the “ECmax (nM) ± SD” value came to 190 ± 90 nM. Also, the “reduction of METTL3” value at METTL3 came out at 64%. For the same compound, at METTL3-14 [3], the “degradation levels of METTL3 and METTL14” value is recorded as “comparable to those in MOLM-13”.
For `CC1(C)CCN(Cc2cc(F)c(N3CC(=O)NC4(CCN(c5cc(NCc6cccc(CNC(=O)CCCNc7cccc8c7C(=O)N(C7CCC(=O)NC7=O)C8=O)c6)ncn5)CC4)C3)cc2F)CC1` (stereo not drawn) [Compound 14], in assay [1], the “TCFA amplitude (mean ± SEM)” value amounted to 1.2 ± 0.0, the “ECmax (nM) ± SD” value amounted to 250 ± 0 nM and the ECmax entry is “submicromolar”. Besides, the “concentration at which the highest degradation was observed” value at METTL3-14 [2] worked out at 1 µM. The “degradation levels of METTL3 and METTL14” value at METTL3-14 [3] is listed as “comparable to those in MOLM-13”.

The values are drawn from article PMC10900215 (JACS Au, 2024).
